Reference: patent publication US20040038883A1, “Peptide inhibitors of Akt and uses thereof” (priority 2002, published 2004)
No end group written: not given here.

What was measured:
Akt1 = molecular target: T1, Akt1 (Homo sapiens, UniProt P31749); assay: in vitro Akt1 kinase assay with biotinylated Bad-derived peptide substrate; format: biochemical; settings: FIG. 3
T1 construct: made in house; host or cells: baculovirus / insect cells

SGK = assay: kinase selectivity assay, SGK; format: biochemical
Text: Enzymes: Akt1 was expressed and purified using a baculoviral system. PKA was purchased from Panvera. CDC2, […] and PKC gamma were purchased from Calbiochem, and SGK and Src were purchased from Upstate Biotechnology (Charlottesvilee, Va.).
Substrates: All substrates were custom synthesized by Genemed Synthesis, Inc. (San Francisco, Calif.) except the Src substrate, which was purchased from Promega (cat#V6480). The substrates had the general structure of Biotin-Ahx-peptide. The Akt assay used […]. The PKA assay used kemptide LRRASLG. The CDC2 assay used PKTPKKAKKL. The SGK assay used RPRAATF. The PKC delta and gamma used neurogranin ERMRPRKRQGSVRRRV. Phosphotidylserine and dioleyl-sn-glycerol were purchased from Avanti Polar Lipids (Alabaster, Ala.). Strepavidin Flash Plates were purchased from Perkin Elmer Life Sciences (Boston, Mass.).
Turning to the kinase selectivity assays, all the enzymes other than Akt were tested in 25 mM Hepes buffer pH 7.4, 10 mM MgCl2, 0.1 mM Na3VO4, 0.5 mM DTT and 0.075 mg/ml Triton X-100. […] Reactions were transferred to Flash Plates, vortexed and incubated at room temperature for 10 min, then washed 3 times with phosphate buffered saline with 0.05% Tween 20 and counted on a TopCount Packard Instruments gamma counter (Packard Instruments, Boston, Mass.). IC50s were calculated using the Assay Explorer software, sigmoidal curve fit by MDL.

mouse Akt1 = mouse Akt1 (Mus musculus, UniProt P31750); settings: mouse Akt1, J. Biol. Chem. 275:36108-36115 (2000); cited from earlier work
Chain of mouse Akt1 (P31750 whole entry): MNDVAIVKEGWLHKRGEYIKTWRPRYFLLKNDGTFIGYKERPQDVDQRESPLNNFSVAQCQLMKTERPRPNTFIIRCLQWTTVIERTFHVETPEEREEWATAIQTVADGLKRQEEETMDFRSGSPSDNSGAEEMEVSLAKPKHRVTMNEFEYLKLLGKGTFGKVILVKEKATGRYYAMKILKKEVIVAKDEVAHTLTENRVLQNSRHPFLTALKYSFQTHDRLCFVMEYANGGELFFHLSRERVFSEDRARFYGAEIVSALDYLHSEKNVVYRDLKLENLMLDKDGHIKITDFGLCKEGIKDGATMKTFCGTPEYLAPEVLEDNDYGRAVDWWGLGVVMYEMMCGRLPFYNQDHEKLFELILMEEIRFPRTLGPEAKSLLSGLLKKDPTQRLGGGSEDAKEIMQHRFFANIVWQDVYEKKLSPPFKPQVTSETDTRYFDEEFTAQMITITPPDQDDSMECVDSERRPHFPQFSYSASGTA

Akt = assay: Ki
Description: Table printed on a drawing sheet, FIG.8
The patent's description of the figure: FIG. 8 represents the minimal length requirement for the peptide inhibitors. Different lengths of peptide inhibitor 2 were synthesized. For some of them, an acetyl group was added to the amino terminal end to increase the stability for cellular assays. These peptides were tested in the Akt assay described herein.
First copying reader's note: Ki values are for length variants of peptide inhibitor 2 tested in the Akt assay; the unit (μM) stands in the cells.
Where the first naming reader finds the target: description_of_the_figure: These peptides were tested in the Akt assay described herein.

[1] = test system: Akt1-FL (full-length Akt1); assay: IC50 (Akt1-FL*)
Description: Table printed on a drawing sheet, FIG.3B
Head of the field: IC50 (Akt1-FL*)
Footnotes: *FL: FULL-LENGTH
The patent's description of the figure: FIG. 3: FIG. 3A illustrates Akt1 inhibition by the five Akt1 peptide inhibitors. FIG. 3B illustrates the IC50 of the five peptide inhibitors.
First copying reader's note: For peptide 5 the sheet prints a percent value at 128μM in place of an IC50.
Where the first naming reader finds the target: head: IC50 (Akt1-FL*)

T1 sequence (P31749 whole entry): as the sequence (P31750 whole entry) above, with N2S, S50A, A100T, R112K, T117E, T389K, N410G, D415H counted along it

Row | Compound | Ki (Akt) | IC50 [1] | other results
1 | 5: peptide 2 with threonine at position 15 mutated to Asp (VELDPEFEPRARERDYAFGH; Variant of the wildtype Akt Sequence) [Peptide 5] |  |  | relative potency of Akt1 inhibition (in words) (Akt1): least potent inhibitor
2 | CC(C)C[C@H](NC(=O)[C@H](CCC(=O)O)NC(=O)[C@@H](N)C(C)C)C(=O)N[C@@H](CC(=O)O)C(=O)N1CCC[C@H]1C(=O)N[C@@H](CCC(=O)O)C(=O)N[C@@H](Cc1ccccc1)C(=O)N[C@@H](CCC(=O)O)C(=O)N1CCC[C@H]1C(=O)N[C@@H](CCCNC(=N)N)C(=O)N[C@@H](C)C(=O)N[C@@H](CCCNC(=N)N)C(=O)N[C@@H](CCC(=O)O)C(=O)N[C@@H](CCCNC(=N)N)C(=O)N[C@H](C(=O)N[C@@H](Cc1ccc(O)cc1)C(=O)N[C@@H](CO)C(=O)N[C@@H](Cc1ccccc1)C(=O)NCC(=O)N[C@@H](Cc1c[nH]cn1)C(=O)O)[C@@H](C)O [Peptide 1] |  |  | relative potency of Akt1 inhibition (in words) (Akt1): most potent inhibitor against Akt1; inhibition on SGK (in words) (SGK): inhibition was observed; Ki (SGK; highest concentration tested 50 μM, 10 μM ATP): 1 µM
3 | ARKRERTYSFGHHA [AKTide-2T] |  |  | Ki (mouse Akt1): 12 µM
4 | Ac-DPEFEPRARERTYAFGH | 0.26 µM |  | 
5 | Ac-ERTYAFGH | > 100 µM |  | 
6 | Ac-FEPRARERTYAFGH | 1.44 µM |  | 
7 | Ac-RARERTYAFGH | 15.9 µM |  | 
8 | FEPRARERTYAFGH | 1.97 µM |  | 
9 | VELDPEFEPRARER A Y A F GH [4:] |  | 0.21 µM | 
10 | VELDPEFEPRARER T Y A F GH [2:] |  | 0.28 µM | 
11 | VELDPEFEPRARER T Y D F GH [3:] |  | 10.6 µM | 
12 | VELDPEFEPRARER T Y S F GH [1:] |  | 0.49 µM | 
